# In US20130072474A1, “TREATMENT OF DEMENTIA OF ALZHEIMER'S TYPE WITH MASITINIB” (AB SCIENCE, priority 2010, published 2013):
# Entries after “also recorded” stand apart in the source; their conditions may differ.
# Assays:
# [1] = test system: patients suffering from mild to moderate dementia of Alzheimer's type; assay: Phase 2 study, safety (adverse events, NCI CTCAE v3.0); type: in vivo, human; settings: for At least one AE, All, patients: regardless of causality
# Excerpt: (§1) A multicenter, randomized, double-blind, placebo-controlled, parallel-group phase 2 study evaluating the activity of masitinib given orally for 24 weeks has been performed in patients suffering from mild to moderate dementia of Alzheimer's type (protocol period completed, extension ongoing).
# Patients: Patients enrolled in this study had dementia of Alzheimer's type (according to DSM IV criteria), probable Alzheimer's disease according to NINCDS-ADRDA criteria, MMSE≧12 and ≦26, and CDR of 1 or 2. Patients had been receiving a stable dose of acetylcholinesterase inhibitors for a minimum of 6 months and/or memantine for a minimum of 3 months. Exclusion criteria included inadequate organ function (defined via blood test levels), dementia due to any other causes, uncontrolled depression, psychosis, delusions or delirium.
# (§2) Treatment: In addition to a stable dose of acetylcholinesterase inhibitors and/or memantine, patients received masitinib or placebo, supplied as 100 and 200 mg tablets, per os for 24 weeks. Patients received masitinib or placebo initially at a daily total dose of 3 mg/kg or 6 mg/kg, administered twice daily with meals. Dose could be increased or decreased by 1.5 mg/kg/day depending on efficacy and toxicity assessments. Five patients were allocated to each masitinib dose for every three placebo patients. Treatment with any registered or putative cognitive enhancer or disease modifier (other than donepezil, galantamine, rivastigmine or memantine), or any investigational therapies was not allowed.
# Safety was monitored throughout the study, and graded according to the NCI CTCAE v3.0 in all patients receiving at least one dose of masitinib. Safety assessment was based upon the frequency and severity of adverse events (AE), regardless of causality.
# Safety was assessed in the safety population (all patients receiving at least one drug administration), with descriptive statistics.
# [2] = test system: patients suffering from mild to moderate dementia of Alzheimer's type; assay: Phase 2 study, CIBIC-plus (global clinical assessment); type: in vivo, human; settings: Observed Cases, ITT population
# Excerpt: as §1
# Patients: Patients enrolled in this study had dementia of Alzheimer's type (according to DSM IV criteria), probable Alzheimer's disease according to NINCDS-ADRDA criteria, MMSE≧12 and ≦26, and CDR of 1 or 2. […] Exclusion criteria included inadequate organ function (defined via blood test levels), dementia due to any other causes, uncontrolled depression, psychosis, delusions or delirium.
# as §2
# CIBIC-plus: Clinician's Interview Based Impression of Change, requires assessment by a skilled clinician based on his/her observation at an interview with the patient, in combination with information supplied by a caregiver familiar with the behavior of the patient over the interval rated.
# Statistical analyses: Efficacy was analyzed in the intent-to-treat (ITT) (all randomized patients, according to group of randomization) and per protocol (PP) (all patients without a major protocol deviation) populations. […] Efficacy criteria were analyzed using descriptive statistics, numbers and rates for categorical and discontinuous variables, parametric and non-parametric distribution elements for continuous variables.
# Results are presented for the ITT population in the OC dataset (with LOCF for Centre #21 at Week 24).
structure (smiles),measurement,setting,value
"Cc1ccc(NC(=O)c2ccc(CN3CCN(C)CC3)cc2)cc1Nc1nc(-c2cccnc2)cs1 [masitinib, 4-(4-methylpiperazin-1-ylmethyl)-N-[4-methyl-3-(4-pyridin-3ylthiazol-2-ylamino)phenyl]benzamide]",dose effect on frequency of overall and individual AEs,[1]; 3 versus 6 mg/kg/day arms,no dose effect in terms of toxicity
same,patients who experienced edema,[1]; 26 masitinib-treated patients,27%
same,patients who experienced nausea/vomiting,[1]; 26 masitinib-treated patients,27%
same,patients who experienced rash,[1]; 26 masitinib-treated patients,15%
same,patients with at least one AE considered related,[1]; 26 masitinib-treated patients,58%
same,patients with at least one related serious adverse event,[1]; 26 masitinib-treated patients,19%
same,patients with related AEs leading to treatment discontinuation,[1]; 26 masitinib-treated patients,35%
same,"Anemia, All, patients",[1]; N = 26,(50.0%)
same,"Anemia, Moderate, patients",[1]; N = 26,(7.7%)
same,"Anorexia, All, patients",[1]; N = 26,(15.4%)
same,"Anorexia, Moderate, patients",[1]; N = 26,(7.7%)
same,"Anorexia, Severe, patients",[1]; N = 26,(7.7%)
same,"Asthenia, All, patients",[1]; N = 26,(11.5%)
same,"Asthenia, Moderate, patients",[1]; N = 26,(3.8%)
same,"Asthenia, Severe, patients",[1]; N = 26,(3.8%)
same,"At least one AE, Moderate, patients",[1]; N = 26,(42.3%)
same,"At least one AE, Severe, patients",[1]; N = 26,15%
same,"Depression, All, patients",[1]; N = 26,(7.7%)
same,"Diarrhea, All, patients",[1]; N = 26,23%
same,"Diarrhea, Moderate, patients",[1]; N = 26,(11.5%)
same,"Eyelid edema, All, patients",[1]; N = 26,(15.4%)
same,"Eyelid edema, Moderate, patients",[1]; N = 26,(7.7%)
same,"Leukopenia, All, patients",[1]; N = 26,(26.9%)
same,"Leukopenia, Moderate, patients",[1]; N = 26,(3.8%)
same,"Nausea, All, patients",[1]; N = 26,(15.4%)
same,"Nausea, Moderate, patients",[1]; N = 26,(3.8%)
same,"Nausea, Severe, patients",[1]; N = 26,(3.8%)
same,"Neutropenia, All, patients",[1]; N = 26,(42.3%)
same,"Peripheral edema, All, patients",[1]; N = 26,(19.2%)
same,"Peripheral edema, Moderate, patients",[1]; N = 26,(11.5%)
same,"Thrombocytopenia, All, patients",[1]; N = 26,(15.4%)
same,"Vomiting, All, patients",[1]; N = 26,(11.5%)
same,"Vomiting, Moderate, patients",[1]; N = 26,(7.7%)
same,"Weight Decreased, All, patients",[1]; N = 26,(7.7%)
same,"Weight Decreased, Moderate, patients",[1]; N = 26,(7.7%)
same,"At least one AE, Severe, patients","[1]; N = 26, listed as Masitinib",(15.4%)
same,"Diarrhea, All, patients","[1]; N = 26, listed as Masitinib",(23.1%)
same,"At least one AE, All, patients",[1]; N = 26,65%
same,"At least one AE, All, patients","[1]; N = 26, listed as Masitinib",(65.4%)
same,patients in the masitinib arm who withdrew due to related AEs,"[1]; before completion of the 24-week treatment period, of 17 masitinib patients who withdrew",41%
same,patients with dose reductions due to AEs (all considered related),[1]; masitinib-treated patients,four
same,patients with severe transaminase elevation,[1]; masitinib-treated patients,One
same,deaths,[1]; phase 2 study,No deaths were reported; also recorded: No patients died
same,"CIBIC-plus No change (CIBIC = 4), rate of patients",[2]; W 4,16 (66.7%)
same,"CIBIC-plus Response (CIBIC in [1-3]), rate of patients",[2]; W 4,4 (16.7%)
same,"CIBIC-plus Worsening (CIBIC in [5-7]), rate of patients",[2]; W 4,4 (16.7%)
same,"CIBIC-plus No change (CIBIC = 4), rate of patients",[2]; W 8,16 (84.2%)
same,"CIBIC-plus Response (CIBIC in [1-3]), rate of patients",[2]; W 8,2 (10.5%)
same,"CIBIC-plus Worsening (CIBIC in [5-7]), rate of patients",[2]; W 8,1 (5.3%)
same,"CIBIC-plus No change (CIBIC = 4), rate of patients",[2]; W 12,14 (82.4%)
same,"CIBIC-plus Response (CIBIC in [1-3]), rate of patients",[2]; W 12,1 (5.9%)
same,"CIBIC-plus Worsening (CIBIC in [5-7]), rate of patients",[2]; W 12,12%
same,"CIBIC-plus Worsening (CIBIC in [5-7]), rate of patients","[2]; W 12, listed as AB1010",2 (11.8%)
same,"CIBIC-plus No change (CIBIC = 4), rate of patients",[2]; W 24,5 (55.6%)
same,"CIBIC-plus Response (CIBIC in [1-3]), rate of patients",[2]; W 24,2 (22.2%)
same,"CIBIC-plus Worsening (CIBIC in [5-7]), rate of patients",[2]; W 24,2 (22.2%)
same,"CIBIC-plus No change (CIBIC = 4), rate of patients",[2]; W 24 LOCF center 21,12 (75.0%)
same,"CIBIC-plus Response (CIBIC in [1-3]), rate of patients",[2]; W 24 LOCF center 21,2 (12.5%)
same,"CIBIC-plus Worsening (CIBIC in [5-7]), rate of patients",[2]; W 24 LOCF center 21,2 (12.5%)
